US20190231788A1, “COMPOSITIONS COMPRISING TIMOLOL AND AN ANTI-INFLAMMATORY AGENT” (Almirall, S.A., priority 2016, published 2019)

How the values were obtained:
[1] = tested on: TPA-induced ear oedema; assay: TPA-induced ear oedema model in Balb/c mice, single topical application; type: in vivo
Description: Evaluation of the Anti-Oedema Effect of Ivermectin, Praziquantel and Timolol and Combinations of Timolol with Ivermectin or Praziquantel after a Single Topical Application in the TPA-Induced Ear Oedema Model in Balb/c Mice.
The oedema is induced by means of a single application to the right ear of the mouse of 10 μl of a solution of TPA (phorbol 12-myristate 13-acetate) in acetone at 0.01%. The test compounds are diluted in acetone and applied with TPA. The weight of the mouse ears is measured at T+6 h and the weight of the left ear is subtracted from the one of the right ear.
Treatments: • A. Ivermectin is applied at a concentration of 0.1-0.3-1%, • B. Praziquantel is applied at a concentration at 0.3-1-3% • C. Timolol is applied at a concentration at 0.2-0.5-1%.
For combination studies Ivermectin alone is applied at a concentration of 0.3%, praziquantel alone is applied at 1% and timolol alone is applied at 0.5%. These same strengths are used in the combinations.
Each graph represents the average weight of the ear oedema of four different groups of treated animals. Each group includes 6 animals. Numbers above the bars indicate the percentage inhibition of the corresponding group of treated animals vs the control group.

[2] = tested on: TPA-induced ear oedema; details: topical 0.2%; mice; cited from earlier work
[3] = dose-response study (FIGS. A-C), 0.3% in acetone applied with TPA, ear weight at T+6 h
[4] = dose-response study (FIGS. A-C), 1% in acetone applied with TPA, ear weight at T+6 h

O=C(C1CCCCC1)N1CC(=O)N2CCc3ccccc3C2C1 (racemic) [praziquantel, (RS)-2-(Cyclohexylcarbonyl)-1,2,3,6,7,11b-hexahydro-4H-pyrazino[2,1-a]isoquinolin-4-one]
inhibition of ear oedema vs control group ([1]; combination study FIG. 2, praziquantel alone at 1%, T+6 h): 42% | inhibition of ear oedema vs control group [1, 3]: 15% | inhibition of ear oedema vs control group [1, 4]: 48% | inhibition of ear oedema vs control group ([1]; dose-response study (FIGS. A-C), 3% in acetone applied with TPA, ear weight at T+6 h): 91%

Brc1c(NC2=NCCN2)ccc2nccnc12 [brimonidine]
inhibition of TPA-induced ear oedema [2]: 50%

CC[C@H](C)[C@H]1O[C@]2(CC[C@@H]1C)C[C@@H]1C[C@@H](C/C=C(\C)C(O[C@H]3C[C@H](OC)C(O[C@H]4C[C@H](OC)[C@@H](O)[C@H](C)O4)[C@H](C)O3)[C@@H](C)/C=C/C=C3\CO[C@@H]4[C@H](O)C(C)=C[C@@H](C(=O)O1)[C@]34O)O2 (some centres unmarked) [ivermectin, 22,23-dihydroavermectin B1a]
inhibition of ear oedema vs control group ([1]; combination study FIG. 1, ivermectin alone at 0.3%, T+6 h): 37% | inhibition of ear oedema vs control group ([1]; dose-response study (FIGS. A-C), 0.1% in acetone applied with TPA, ear weight at T+6 h): 20% | inhibition of ear oedema vs control group [1, 3]: 43% | inhibition of ear oedema vs control group [1, 4]: 82%

CC(C)(C)NC[C@H](O)COc1nsnc1N1CCOCC1 [timolol, (S)-1-(tert-butylamino)-3-[(4-morpholin-4-yl-1,2,5-thiadiazol-3-yl)oxy]propan-2-ol]
inhibition of ear oedema vs control group ([1]; combination study FIG. 1, timolol alone at 0.5%, T+6 h): 30% | inhibition of ear oedema vs control group ([1]; combination study FIG. 2, timolol alone at 0.5%, T+6 h): 16% | inhibition of ear oedema vs control group ([1]; dose-response study (FIGS. A-C), 0.2% in acetone applied with TPA, ear weight at T+6 h): 6% | inhibition of ear oedema vs control group ([1]; dose-response study (FIGS. A-C), 0.5% in acetone applied with TPA, ear weight at T+6 h): 23% | inhibition of ear oedema vs control group [1, 4]: 14%
